Laboratory results published in patent US6365753B1, “Phthalimides and herbicide containing the same as active component” (Mitsubishi Chemical Corporation, priority 1998, dated 2002).

How the values were obtained:
Assay type in all cases: in vivo
[1] = tested on: Setaria viridis; experiment: Soil treatment test pre-emergence application; settings: 10 g/a active ingredient, 28th day from treatment, herbicidal index
Procedure: (§1) Volcanic ash soil from a field was put in a resin-made pot having an area of 200 cm^2. After fertilization, soil previously mixed uniformly with the seeds of Digitaria ciliaris, Setaria viridis, Chenopodium album and Polygonum lapathifolium was scattered on the soil. The emulsifiable concentrate comprising the compound of the invention as an active ingredient which was obtained in Formulation Example 3 was diluted with water, and a prescribed amount of the diluted composition was sprayed uniformly to the surface of the soil by means of a small-sized power pressure spray to give 10 g of the active ingredient per are.
(§2) Thereafter, cultivation was continued in a greenhouse, and the herbicidal effect was examined on the 28th day from the treatment. The results obtained are shown in Table 5 (the compound numbers in Table 5 correspond to those in Tables 1 and 2). The herbicidal effect was evaluated based on the same criteria as in Test Example 1.

[2] = tested on: Polygonum lapathifolium; experiment: Soil treatment test pre-emergence application; settings: 10 g/a active ingredient, 28th day from treatment, herbicidal index
Procedure: as §1, §2

[3] = tested on: Chenopodium album; experiment: Soil treatment test pre-emergence application; settings: 10 g/a active ingredient, 28th day from treatment, herbicidal index
Procedure: as §1, §2

[4] = tested on: Digitaria ciliaris; experiment: Soil treatment test pre-emergence application; settings: 10 g/a active ingredient, 28th day from treatment, herbicidal index
Procedure: as §1, §2

[5] = tested on: Ipomoea purpurea; experiment: Foliar treatment test (1) post-emergence application; settings: foliar treatment post-emergence at 1.0- to 2.0-leaf stage, 10 g/a active ingredient, 21st day from treatment; herbicidal index
Procedure: (§3) Volcanic ash soil from a field was put in a resin-made pot having an area of 200 cm^2. After fertilization, the seeds of Brassica juncea, Ipomoea purpurea, Echinochloa crus-galli and Alopeculus aequalis were cast on the soil and uniformly covered with the soil.
(§4) Cultivation was continued in a greenhouse, and when the weeds reached the 1.0- to 2.0-leaf stage, a prescribed amount of the emulsifiable concentrate comprising the compound of the invention as an active ingredient which was prepared in Formulation Example 3 as diluted with water was sprayed uniformly to the weeds by means of a small-sized power pressure spray to give 10 g of the active ingredient per are.
(§5) Thereafter, cultivation was further continued in the greenhouse, and the herbicidal effect was examined on the 21st day from the treatment. The results obtained are shown in Table 6 (the compound numbers in Table 6 correspond to those in Tables 1 and 2). The herbicidal effect was evaluated based on the same criteria as in Test Example 1.

[6] = tested on: Brassica juncea; experiment: as above; settings: foliar treatment post-emergence at 1.0- to 2.0-leaf stage, 10 g/a active ingredient, 21st day from treatment; herbicidal index
Procedure: as §3, §4, §5

[7] = tested on: Alopeculus aequalis; experiment: as above; settings: foliar treatment post-emergence at 1.0- to 2.0-leaf stage, 10 g/a active ingredient, 21st day from treatment; herbicidal index
Procedure: as §3, §4, §5

[8] = tested on: Echinochloa crus-galli; experiment: as above; settings: foliar treatment post-emergence at 1.0- to 2.0-leaf stage, 10 g/a active ingredient, 21st day from treatment; herbicidal index
Procedure: as §3, §4, §5

[9] = tested on: Scirpus juncoides; experiment: Submerged treatment test; settings: 10 g/a active ingredient, treated 5th day from sowing, examined on the 2.8th day from treatment, herbicidal index
Procedure: (§6) Alluvial soil from a paddy field was put in a resin-made pot having an area of 200 cm^2. After fertilization, an adequate amount of water was added, and the soil was puddled and leveled. Seeds of Echinochloa crus-galli, Monochoria vaginalis, Rotala indica and Scirpus juncoides were sowed within a layer 0.5 cm below the surface of the soil. Water was poured onto the soil to keep a water depth of 3.5 cm.
(§7) On the 5th day from the sowing, the emulsifiable concentrate containing the compound of the invention as an active ingredient which was prepared in Formulation Example 3 was diluted with water. A prescribed amount of the diluted composition was dropped to the water so as to give 10 g of the active ingredient per are.
(§8) Cultivation was continued in a greenhouse, and the herbicidal effect was examined on the […] from the treatment. The results obtained are shown in Table 4 (the compound numbers in Table 4 correspond to those in Tables 1 and 2). The herbicidal effect was evaluated in terms of herbicidal index based on Y(%) obtained from equation:
(§9) y=[1−(Weight of weeds above the ground in a treated pot)/(Weight of weeds above the ground in a non-treated pot)]×100 (%)

[10] = tested on: Rotala indica; experiment: Submerged treatment test; settings: 10 g/a active ingredient, treated 5th day from sowing, examined on the 2.8th day from treatment, herbicidal index
Procedure: as §6, §7, §8, §9

[11] = tested on: Monochoria vaginalis; experiment: Submerged treatment test; settings: 10 g/a active ingredient, treated 5th day from sowing, examined on the 2.8th day from treatment, herbicidal index
Procedure: as §6, §7, §8, §9

[12] = tested on: Echinochloa crus-galli; experiment: Submerged treatment test; settings: 10 g/a active ingredient, treated 5th day from sowing, examined on the 2.8th day from treatment, herbicidal index
Procedure: as §6, §7, §8, §9
Further: ranges in brackets are in %.

Compound	Herbicidal Effect Setaria viridis [1]	Herbicidal Effect Polygonum lapathifolium [2]	Herbicidal Effect Chenopodium album [3]	Herbicidal Effect Digitaria ciliaris [4]	Herbicidal Effect Ipompoea-purpurea [5]	Herbicidal Effect Brassica juncea [6]	Herbicidal Effect Alopeculus sequalis [7]	Herbicidal Effect Echinochloa crus-galli [8]	Herbicidal Effect Scirpus juncoides [9]	Herbicidal Effect Rotala indica [10]	Herbicidal Effect Monochoria vaginalis [11]	Herbicidal Effect Echinochloa crus-galli [12]
CCCOC(=O)C(Cl)Cc1cc(N2C(=O)c3ccccc3C2=O)c(F)cc1Cl (stereo not drawn) [Compound 6]	0 (0-5)	5 (91-100)	5 (91-100)	0 (0-5)	5 (91-100)	5 (91-100)	2 (31-50)	2 (31-50)	5 (91-100)	5 (91-100)	5 (91-100)	5 (91-100)
CC(C)OC(=O)C(Cl)Cc1cc(N2C(=O)c3ccccc3C2=O)c(F)cc1Cl (stereo not drawn) [Compound 7, Isopropyl 2-Chloro-3-(2-chloro-4-fluoro-5-phthalimidophenyl)propionate]	1 (6-30)	5 (91-100)	5 (91-100)	1 (6-30)	5 (91-100)	5 (91-100)	2 (31-50)	3 (51-70)	5 (91-100)	5 (91-100)	5 (91-100)	5 (91-100)
C=CCNC(=O)C(Cl)Cc1cc(N2C(=O)c3ccccc3C2=O)c(F)cc1Cl (stereo not drawn) [Compound 12]	4 (71-90)	4 (71-90)	5 (91-100)	4 (71-90)	5 (91-100)	5 (91-100)	2 (31-50)	4 (71-90)	1 (6-30)	5 (91-100)	5 (91-100)	5 (91-100)
CN(C)C(=O)C(Cl)Cc1cc(N2C(=O)c3ccccc3C2=O)c(F)cc1Cl (stereo not drawn) [Compound 14]	3 (51-70)	5 (91-100)	5 (91-100)	3 (51-70)	5 (91-100)	5 (91-100)	4 (71-90)	3 (51-70)	3 (51-70)	5 (91-100)	5 (91-100)	5 (91-100)
CCOC(=O)C(Cl)Cc1cc(N2C(=O)c3ccc(F)cc3C2=O)c(F)cc1Cl (stereo not drawn) [Compound 15, Ethyl 2-Chloro-3-[2-chloro-4-fluoro-5-(4-fluorophthalimido)phenyl]propionate]	2 (31-50)	5 (91-100)	5 (91-100)	2 (31-50)	5 (91-100)	5 (91-100)	4 (71-90)	4 (71-90)	3 (51-70)	5 (91-100)	5 (91-100)	4 (71-90)
